Columns and labels:
Details in all cases: scale 0 to 100
wild oat (Avenafatua) = test: Test D postemergence; type: in vivo, Avena fatua
From the text: Seeds of plant species selected from bluegrass (annual bluegrass, Poa annua), blackgrass (Alopecurus myosuroides), canarygrass (Phalaris minor), chickweed (common chickweed, Stellaria media), cutleaf geranium (Geranium dissectum), galium (catchweed bedstraw, Galium aparine), downy bromegrass (Bromus tectorum), field poppy (Papaver rhoeas), field violet (Viola arvensis), green foxtail (Setaria viridis), deadnettle (henbit deadnettle, Lamium amplexicaule), Italian ryegrass (Lolium multiflorum), kochia (Kochia scoparia), lambsquarters (Chenopodium album), oilseed rape (Brassica napus), pigweed (Amaranthus retroflexus), chamomile (scentless chamomile, Matricaria inodora), Russian thistle (Salsola kali), speedwell (bird's-eye speedwell, Veronica persica), spring barley (Hordeum vulgare), spring wheat (Triticum aestivum), wild buckwheat (Polygonum convolvulus), wild mustard (Sinapis arvensis), wild oat (Avenafatua), wild radish (Raphanus raphanistrum), windgrass (Apera spica-venti), winter barley (Hordeum vulgare), and winter wheat (Triticum aestivum) were planted into a silt loam soil and treated preemergence with test chemicals formulated in a non-phytotoxic solvent mixture which included a surfactant.
At the same time, these species were planted in pots containing Redi-Earth® planting medium (Scotts Company, 14111 Scottslawn Road, Marysville, Ohio 43041) comprising spaghnum peat moss, vermiculite, wetting agent and starter nutrients and treated with postemergence applications of the test chemicals formulated in the same manner. Plants ranged in height from 2 to 18 cm (1- to 4-leaf stage). Treated plants and controls were maintained in a controlled growth environment for 14 to 21 days after which time all species were compared to controls and visually evaluated. Plant response ratings, summarized in Table D, are based on a scale of 0 to 100 where 0 is no effect and 100 is complete control. A dash (-) response means no test result.

corn (Zea mays) [1] = test: Test E preemergence; type: in vivo
Outline: (§1)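 Preemergence: seeds in silt loam treated with compound in non-phytotoxic solvent with surfactant. Postemergence: plants at 1- to 4-leaf stage (2–18 cm) in peat-based medium sprayed likewise. Greenhouse 14–21 days, then visual rating vs controls, 0 (no effect) to 100 (complete control).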

[2] = tested on: giant foxtail (Setaria faberii); test: Test E preemergence; type: in vivo
Outline: as §1

[3] = tested on: velvetleaf (Abutilon theophrasti); test: Test E preemergence; type: in vivo
Outline: as §1

soybean (Glycine max) [4] = test: Test E preemergence; type: in vivo
Outline: as §1

[5] = tested on: fall panicum (Panicum dichotomiflorum); test: Test E postemergence; type: in vivo
From the text: (§2) Seeds of plant species selected from corn (Zea mays), soybean (Glycine max), velvetleaf (Abutilon theophrasti), cocklebur (common cocklebur, Xanthium strumarium), lambsquarters (Chenopodium album), wild poinsettia (Euphorbia heterophylla), palmer pigweed (Amaranthus palmeri), waterhemp (common waterhemp, Amaranthus rudis), surinam grass (Brachiaria decumbens), large (Lg) crabgrass (Digitaria sanguinalis), Brazilian crabgrass (Digitaria horizontalis), fall panicum (Panicum dichotomiflorum), giant foxtail (Setaria faberii), green foxtail (Setaria viridis), goosegrass (Eleusine indica), johnsongrass (Sorghum halepense), ragweed (common ragweed, Ambrosia elatior), barnyardgrass (Echinochloa crus-galli), sandbur (southern sandbur, Cenchrus echinatus), arrowleaf sida (Sida rhombifolia), Italian ryegrass (Lolium multiflorum), dayflower (Virginia (VA) dayflower, Commelina virginica), field bindweed (Convolvulus arvensis), morningglory (Ipomoea coccinea), nightshade (eastern black nightshade, Solanum ptycanthum), kochia (Kochia scoparia), yellow nutsedge (Cyperus esculentus), horseweed (Conyza canadensis), and hairy beggarticks (Bidens pilosa), were planted into a silt loam soil and treated preemergence with test chemicals formulated in a non-phytotoxic solvent mixture which included a surfactant.
(§3) At the same time, plants from these crop and weed species and also waterhemp_RES1, (ALS & Triazine resistant common waterhemp, Amaranthus rudis), and waterhemp_RES2, (ALS & HPPD resistant common waterhemp, Amaranthus rudis) were planted in pots containing Redi-Earth® planting medium (Scotts Company, 14111 Scottslawn Road, Marysville, Ohio 43041) comprising spaghnum peat moss, vermiculite, wetting agent and starter nutrients were treated with postemergence applications of test chemicals formulated in the same manner. Plants ranged in height from 2 to 18 cm for postemergence treatments (1- to 4-leaf stage). Treated plants and controls were maintained in a greenhouse for 14 to 21 days, after which time all species were compared to controls and visually evaluated. Plant response ratings, summarized in Table E, are based on a scale of 0 to 100 where 0 is no effect and 100 is complete control. A dash (-) response means no test result.

[6] = tested on: waterhemp (common waterhemp, Amaranthus rudis); test: Test E postemergence; type: in vivo
From the text: as §2, §3

[7] = tested on: Brazilian crabgrass (Digitaria horizontalis); test: Test E postemergence; type: in vivo
From the text: as §2, §3

[8] = tested on: hairy beggarticks (Bidens pilosa); test: Test E postemergence; type: in vivo
From the text: as §2, §3

kochia (Kochia scoparia) = test: Test E postemergence; type: in vivo
From the text: as §2, §3

[9] = tested on: waterhemp_RES2 (ALS & HPPD resistant common waterhemp, Amaranthus rudis); test: Test E postemergence; type: in vivo
From the text: as §2, §3

corn (Zea mays) [10] = test: Test E postemergence; type: in vivo
From the text: as §2, §3

[11] = tested on: arrowleaf sida (Sida rhombifolia); test: Test E postemergence; type: in vivo
From the text: as §2, §3

soybean (Glycine max) [12] = test: Test E postemergence; type: in vivo
From the text: as §2, §3

[13] = tested on: palmer pigweed (Amaranthus palmeri); test: Test E postemergence; type: in vivo
From the text: as §2, §3

## N#Cc1cccc(Oc2ncc(Cl)cn2)c1Oc1ncc(Cl)cn1 [Compound 3, 2,3-bis[(5-chloro-2-pyrimidinyl)oxy]benzonitrile]
Wild oat (Avenafatua); 16 g ai/ha
  Plant response rating, Oat, Wild: 15
Wild oat (Avenafatua); 31 g ai/ha
  Plant response rating, Oat, Wild: 15
Wild oat (Avenafatua); 62 g ai/ha
  Plant response rating, Oat, Wild: 15
Wild oat (Avenafatua); 125 g ai/ha
  Plant response rating, Oat, Wild: 20

## Clc1cnc(Oc2cccc(Br)c2Oc2ncc(Cl)cn2)nc1 [Compound 19, 2,2′-[[3-bromo-1,2-phenylene]bis(oxy)]bis[5-chloropyrimidine]]
Corn (Zea mays) [1]; 16 g ai/ha
  Plant response rating, Corn: 0
Corn (Zea mays) [1]; 31 g ai/ha
  Plant response rating, Corn: 0
Corn (Zea mays) [1]; 62 g ai/ha
  Plant response rating, Corn: 20
Corn (Zea mays) [1]; 125 g ai/ha
  Plant response rating, Corn: 50
[2]; 16 g ai/ha
  Plant response rating, Foxtail, Giant: 0
[2]; 31 g ai/ha
  Plant response rating, Foxtail, Giant: 95
[2]; 62 g ai/ha
  Plant response rating, Foxtail, Giant: 100
[2]; 125 g ai/ha
  Plant response rating, Foxtail, Giant: 100
[3]; 16 g ai/ha
  Plant response rating, Velvetleaf: 0
[3]; 31 g ai/ha
  Plant response rating, Velvetleaf: 0
[3]; 62 g ai/ha
  Plant response rating, Velvetleaf: 50
[3]; 125 g ai/ha
  Plant response rating, Velvetleaf: 100
Soybean (Glycine max) [4]; 16 g ai/ha
  Plant response rating, Soybean: 0
Soybean (Glycine max) [4]; 31 g ai/ha
  Plant response rating, Soybean: 0
Soybean (Glycine max) [4]; 62 g ai/ha
  Plant response rating, Soybean: 0
Soybean (Glycine max) [4]; 125 g ai/ha
  Plant response rating, Soybean: 50

## Fc1cccc(Oc2ncc(Cl)cn2)c1Oc1ncc(Cl)cn1 [Compound 21, 2,2′-[[3-fluoro-1,2-phenylene]bis(oxy)]bis[5-chloropyrimidine]]
Corn (Zea mays) [1]; 16 g ai/ha
  Plant response rating, Corn: 0
Corn (Zea mays) [1]; 31 g ai/ha
  Plant response rating, Corn: 0
Corn (Zea mays) [1]; 62 g ai/ha
  Plant response rating, Corn: 10
Corn (Zea mays) [1]; 125 g ai/ha
  Plant response rating, Corn: 50
[2]; 16 g ai/ha
  Plant response rating, Foxtail, Giant: 5
[2]; 31 g ai/ha
  Plant response rating, Foxtail, Giant: 90
[2]; 62 g ai/ha
  Plant response rating, Foxtail, Giant: 100
[2]; 125 g ai/ha
  Plant response rating, Foxtail, Giant: 100
[3]; 16 g ai/ha
  Plant response rating, Velvetleaf: 80
[3]; 31 g ai/ha
  Plant response rating, Velvetleaf: 70
[3]; 62 g ai/ha
  Plant response rating, Velvetleaf: 100
[3]; 125 g ai/ha
  Plant response rating, Velvetleaf: 100
Soybean (Glycine max) [4]; 16 g ai/ha
  Plant response rating, Soybean: 0
Soybean (Glycine max) [4]; 31 g ai/ha
  Plant response rating, Soybean: 25
Soybean (Glycine max) [4]; 62 g ai/ha
  Plant response rating, Soybean: 65
Soybean (Glycine max) [4]; 125 g ai/ha
  Plant response rating, Soybean: 90

## Fc1cnc(Oc2c(Br)cccc2Oc2ncc(Cl)cn2)nc1 [Compound 22]
Wild oat (Avenafatua); 16 g ai/ha
  Plant response rating, Oat, Wild: 10
Wild oat (Avenafatua); 31 g ai/ha
  Plant response rating, Oat, Wild: 25
Wild oat (Avenafatua); 62 g ai/ha
  Plant response rating, Oat, Wild: 35
Wild oat (Avenafatua); 125 g ai/ha
  Plant response rating, Oat, Wild: 45

## Fc1cnc(Oc2c(F)cccc2Oc2ncc(Cl)cn2)nc1 [Compound 23]
Wild oat (Avenafatua); 16 g ai/ha
  Plant response rating, Oat, Wild: 15
Wild oat (Avenafatua); 31 g ai/ha
  Plant response rating, Oat, Wild: 15
Wild oat (Avenafatua); 62 g ai/ha
  Plant response rating, Oat, Wild: 20
Wild oat (Avenafatua); 125 g ai/ha
  Plant response rating, Oat, Wild: 35

## FC(F)(F)c1cnc(Oc2c(Br)cccc2Oc2ncc(Cl)cn2)nc1 [Compound 24]
Wild oat (Avenafatua); 16 g ai/ha
  Plant response rating, Oat, Wild: 15
Wild oat (Avenafatua); 31 g ai/ha
  Plant response rating, Oat, Wild: 20
Wild oat (Avenafatua); 62 g ai/ha
  Plant response rating, Oat, Wild: 25
Wild oat (Avenafatua); 125 g ai/ha
  Plant response rating, Oat, Wild: 35

## Fc1ccc(F)c(Oc2ncc(Cl)cn2)c1Oc1ncc(Cl)cn1 [Compound 34, 2,2′-[(3,6-difluoro-1,2-phenylene)bis(oxy)]bis[5-chloropyrimidine]]
Corn (Zea mays) [1]; 16 g ai/ha
  Plant response rating, Corn: 0
Corn (Zea mays) [1]; 31 g ai/ha
  Plant response rating, Corn: 0
Corn (Zea mays) [1]; 62 g ai/ha
  Plant response rating, Corn: 0
Corn (Zea mays) [1]; 125 g ai/ha
  Plant response rating, Corn: 0
[2]; 16 g ai/ha
  Plant response rating, Foxtail, Giant: 0
[2]; 31 g ai/ha
  Plant response rating, Foxtail, Giant: 50
[2]; 62 g ai/ha
  Plant response rating, Foxtail, Giant: 85
[2]; 125 g ai/ha
  Plant response rating, Foxtail, Giant: 80
[3]; 16 g ai/ha
  Plant response rating, Velvetleaf: 30
[3]; 31 g ai/ha
  Plant response rating, Velvetleaf: 100
[3]; 62 g ai/ha
  Plant response rating, Velvetleaf: 100
[3]; 125 g ai/ha
  Plant response rating, Velvetleaf: 100
Soybean (Glycine max) [4]; 16 g ai/ha
  Plant response rating, Soybean: 0
Soybean (Glycine max) [4]; 31 g ai/ha
  Plant response rating, Soybean: 10
Soybean (Glycine max) [4]; 62 g ai/ha
  Plant response rating, Soybean: 25
Soybean (Glycine max) [4]; 125 g ai/ha
  Plant response rating, Soybean: 60

## N#Cc1cccc(Oc2ncc(Cl)cn2)c1Oc1ccc(Cl)cc1 [Compound 36]
[5]; 16 g ai/ha
  Plant response rating, Panicum, Fall: 20
[5]; 31 g ai/ha
  Plant response rating, Panicum, Fall: 25
[5]; 62 g ai/ha
  Plant response rating, Panicum, Fall: 15
[5]; 125 g ai/ha
  Plant response rating, Panicum, Fall: 25
[6]; 16 g ai/ha
  Plant response rating, Waterhemp: 95
[6]; 31 g ai/ha
  Plant response rating, Waterhemp: 90
[6]; 62 g ai/ha
  Plant response rating, Waterhemp: 95
[6]; 125 g ai/ha
  Plant response rating, Waterhemp: 95
[7]; 16 g ai/ha
  Plant response rating, Crabgrass, Brazil: 20
[7]; 31 g ai/ha
  Plant response rating, Crabgrass, Brazil: 20
[7]; 62 g ai/ha
  Plant response rating, Crabgrass, Brazil: 30
[7]; 125 g ai/ha
  Plant response rating, Crabgrass, Brazil: 30
[8]; 16 g ai/ha
  Plant response rating, Beggarticks: 30
[8]; 31 g ai/ha
  Plant response rating, Beggarticks: 35
[8]; 62 g ai/ha
  Plant response rating, Beggarticks: 30
[8]; 125 g ai/ha
  Plant response rating, Beggarticks: 40
Kochia (Kochia scoparia); 16 g ai/ha
  Plant response rating, Kochia: 90
Kochia (Kochia scoparia); 31 g ai/ha
  Plant response rating, Kochia: 95
Kochia (Kochia scoparia); 62 g ai/ha
  Plant response rating, Kochia: 100
Kochia (Kochia scoparia); 125 g ai/ha
  Plant response rating, Kochia: 95
[9]; 16 g ai/ha
  Plant response rating, Waterhemp_RES2: 60
[9]; 31 g ai/ha
  Plant response rating, Waterhemp_RES2: 90
[9]; 62 g ai/ha
  Plant response rating, Waterhemp_RES2: 80
[9]; 125 g ai/ha
  Plant response rating, Waterhemp_RES2: 90
Corn (Zea mays) [10]; 16 g ai/ha
  Plant response rating, Corn: 10
Corn (Zea mays) [10]; 31 g ai/ha
  Plant response rating, Corn: 20
Corn (Zea mays) [10]; 62 g ai/ha
  Plant response rating, Corn: 20
Corn (Zea mays) [10]; 125 g ai/ha
  Plant response rating, Corn: 25
[11]; 16 g ai/ha
  Plant response rating, Arrowleaf Sida: 70
[11]; 31 g ai/ha
  Plant response rating, Arrowleaf Sida: 70
[11]; 62 g ai/ha
  Plant response rating, Arrowleaf Sida: 80
[11]; 125 g ai/ha
  Plant response rating, Arrowleaf Sida: 85
Soybean (Glycine max) [12]; 16 g ai/ha
  Plant response rating, Soybean: 60
Soybean (Glycine max) [12]; 31 g ai/ha
  Plant response rating, Soybean: 50
Soybean (Glycine max) [12]; 62 g ai/ha
  Plant response rating, Soybean: 70
Soybean (Glycine max) [12]; 125 g ai/ha
  Plant response rating, Soybean: 50
[13]; 16 g ai/ha
  Plant response rating, Pigweed, Palmer: 75
[13]; 31 g ai/ha
  Plant response rating, Pigweed, Palmer: 85
[13]; 62 g ai/ha
  Plant response rating, Pigweed, Palmer: 85
[13]; 125 g ai/ha
  Plant response rating, Pigweed, Palmer: 85
